Measurements as given in the supplement of paper PMC10307832.

Columns and labels:
Experiment in all cases: relative viability (nuclei count vs DMSO), 5 days (fraction); higher = more cells survive
[1] = compound: CS(=O)(=O)CCNCc1ccc(-c2ccc3ncnc(Nc4ccc(OCc5cccc(F)c5)c(Cl)c4)c3c2)o1 [Lapatinib] + CCNC(=O)c1noc(-c2cc(C(C)C)c(O)cc2O)c1-c1ccc(CN2CCOCC2)cc1 [Luminespib] (partner 0.01 µM)
How it was run: (§1)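 For relative viability, nuclei counts in treated wells were divided by those in vehicle wells. Lung cancer cell lines had been pin-tool dosed in 1536-well plates the day after seeding and cultured for 5 days, then fixed and stained in one step (final 0.05% Triton X-100, 1% formaldehyde, 1 ug/ml Hoechst) and imaged at 4×. Doses were one drug alone or a fixed anchor-drug dose plus five library-drug doses (not always all listed) in √10 steps, and values are duplicate-plate medians.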

[2] = compound: CC1=NC=CC(=C1)C2=CC=C(C=C2)CC(=O)NC3=CC=C(C=C3)C4=CN=CC=C4 [Wnt-C59] + CS(=O)(=O)N1CCN(Cc2cc3nc(-c4cccc5[nH]ncc45)nc(N4CCOCC4)c3s2)CC1 [Pictilisib] (partner 1 µM)
How it was run: as §1

[3] = compound: CS(=O)(=O)CCNCc1ccc(-c2ccc3ncnc(Nc4ccc(OCc5cccc(F)c5)c(Cl)c4)c3c2)o1 [Lapatinib] + Cc1cc(Nc2cc(N3CCN(C)CC3)nc(Sc3ccc(NC(=O)C4CC4)cc3)n2)n[nH]1 [Tozasertib] (partner 0.1 µM)
How it was run: as §1

[4] = compound: CS(=O)(=O)CCNCc1ccc(-c2ccc3ncnc(Nc4ccc(OCc5cccc(F)c5)c(Cl)c4)c3c2)o1 [Lapatinib] + O=C(c1cc(Cc2n[nH]c(=O)c3ccccc23)ccc1F)N1CCN(C(=O)C2CC2)CC1 [Olaparib] (partner 8 µM)
How it was run: as §1

Cell Line	relative viability ([1]; first compound 0.02 µM)	relative viability ([1]; first compound 0.06325 µM)	relative viability ([1]; first compound 0.2 µM)	relative viability ([1]; first compound 0.6325 µM)	relative viability ([1]; first compound 2 µM)	relative viability ([2]; first compound 0.001 µM)	relative viability ([2]; first compound 0.01 µM)	relative viability ([2]; first compound 0.03162 µM)	relative viability ([2]; first compound 0.1 µM)	relative viability ([3]; first compound 0.02 µM)	relative viability ([3]; first compound 0.06325 µM)	relative viability ([3]; first compound 0.2 µM)	relative viability ([3]; first compound 0.6325 µM)	relative viability ([3]; first compound 2 µM)	relative viability ([4]; first compound 0.02 µM)	relative viability ([4]; first compound 0.06325 µM)	relative viability ([4]; first compound 0.2 µM)	relative viability ([4]; first compound 0.6325 µM)	relative viability ([4]; first compound 2 µM)
NCI-H1563	0.538	0.509	0.537	0.461	0.474	0.604	0.665	0.721	0.646										
NCI-H2009	0.953	1.09	1.08	0.931	0.984	0.744	0.825	0.841	0.784	0.732	0.633	0.78	0.714	0.492	0.666	0.712	0.694	0.696	0.567
NCI-H23			0.197	0.215	0.196	0.426	0.454	0.467	0.423			0.29	0.307	0.218			0.266	0.296	0.2
201T	1.02	0.976	1.03	1.03	1.04	0.704	0.676	0.676	0.698	0.967	0.716	0.886	0.923	0.792	0.85	0.848	0.858	0.833	0.778
NCI-H520	0.21	0.226	0.26	0.242	0.233	0.247	0.293	0.329	0.291	0.511	0.393	0.41	0.543	0.405	0.349	0.278	0.363	0.326	0.366
NCI-H1623	0.429	0.437		0.456	0.408					0.423	0.344		0.379	0.154					
A-427		0.751	0.96	0.959	1.1	0.756	0.554	0.717	0.799		0.252	0.209	0.231	0.185	0.744	0.733	0.918	0.759	0.527
NCI-H1975	0.256	0.122	0.239	0.212	0.206	0.282	0.294	0.326	0.282	0.583	0.516	0.25	0.178	0.167	0.85	0.771	0.772	0.76	0.503
NCI-H647	0.119	0.309	0.169	0.32	0.14	0.35	0.374	0.39	0.429	0.312	0.197	0.184	0.212	0.183	0.536	0.412	0.506	0.523	0.489
NCI-H3122	0.103	0.0758	0.0797	0.0807	0.0854	0.61	0.642	0.626	0.518		0.366	0.479	0.341	0.349	0.582	0.576	0.595	0.627	0.558
